US20230219957A1, “SMALL MOLECULE CB002-ANALOGES RESTORE THE P53 PATHWAY AND TARGET S-PHASE CHECKPOINT” (Brown University, priority 2020, published 2023)

Key:
SW480 tumor cells = experiment: Apoptosis markers (cleaved PARP immunoblot, Cyt-C immunofluorescence); format: cell-based, human
Procedure: Knockdown expression of p73, DR5, ATG5, or FADD using siRNA. A total of 1×10^5 cells/well were plated per well in a 12-well plate in medium with 10% FBS without antibiotic. Forward transfection of p73 siRNA (s14319, Ambion®, Ambion Inc., Austin, Tex., USA), DR5 (sc-40237, Santa Cruz Biotechnology), atg5 (137766, Ambion®, Ambion Inc., Austin, Tex., USA), or FADD (S16706, Ambion®, Ambion Inc., Austin, Tex., USA) was performed using the Lipofectamine® RNAiMAX Transfection Reagent (Life Technologies) and incubated for forty-eight hours before treatment, e.g., before drug treatments.
Immunoblotting (additional method). After treatment, floating cells were collected, and adherent cells were trypsinized, washed with phosphate-buffered saline, and lysed with RIPA buffer (Sigma-Aldrich, St. Louis, Mo., USA) for thirty minutes to one hour at 4° C. Protein lysates were pelleted. The supernatant was collected. Total protein per sample was determined using a Pierce™ BCA Protein Assay Kit (Thermo Fisher Scientific, Waltham, Mass., USA). Proteins were denatured using 1× NuPAGE® LDS sample buffer (Thermo Fisher Scientific, Waltham, Mass., USA) and reduced with 2-mercaptoethanol (Sigma-Aldrich, St. Louis, Mo., USA). Protein lysates were boiled for fifteen min at 95° C. After protein normalization, samples were loaded into NuPAGE™ Novex™ 4-12% Bis-Tris Protein Gels (Thermo Fisher Scientific, Waltham, Mass., USA). Gel electrophoresis was performed with NuPAGE™ MES SDS Running Buffer. […] Signal was detected using a chemiluminescent detection kit, followed by autoradiography. […]
Immunohistochemistry. […] Organoid viability imaging was determined by CellTrace™ Calcein Green (#C34852, Thermo Fisher Scientific, Waltham, Mass., USA), Ethidium Homodimer-1 (#E1169, Thermo Fisher Scientific, Waltham, Mass., USA), Ki67 incubated at 37° C. for one hour then washed with phosphate-buffered saline and imaged. […]

SW480 cells = experiment: Microarray transcriptomic analysis with ingenuity pathway analysis; format: cell-based, human; conditions: twelve hours treatment
Procedure: Microarray analysis. SW480 cells were seeded at a density of 1×10^6 in 10 cm dishes. After being adhered, the cells were treated with dimethyl sulfoxide vehicle control or CB002-analog #4. Floating cells were collected, and adherent cells were trypsinized at twelve hours of treatment. The cells were pelleted. According to manufacturer instructions, RNA was isolated from the cells using a Quick-RNA™ MiniPrep (#R1055, Zymo Research Irvine, Calif., USA). RNA quality was tested using an Agilent Bioanalyzer RNA kit. When the RNA quality was enough, RNA was amplified and labeled using the low RNA input linear amplification kit commercially available from Agilent Technologies, Santa Clara, Calif., USA. Labeled cDNA was hybridized onto Affymetrix Human Gene 2.0-ST array. Significant changes in gene expression were determined at 1.5-fold either up or down in dimethyl sulfoxide vehicle control versus CB002-analog #4.

Compound: Cn1c(=O)c2[nH]c(Nc3cccc(C(F)(F)F)c3)nc2n(C)c1=O [CB002-analog #4]
- cleaved-PARP (SW480 tumor cells; SW480): increases cleaved-PARP
- cytochrome C release from the mitochondria to the cytosol (SW480 tumor cells; SW480, forty-eight hours): cytochrome C release from the mitochondria to the cytosol
- PARP cleavage under p73 knockdown (SW480 tumor cells; SW480, p73 siRNA): PARP cleavage occurred despite effective p73 knockdown
- p53 target genes Noxa, Puma, and DR5 expression (SW480 cells): upregulated
- p53 upstream regulator activation z-score (IPA) (SW480 cells): 3.3
